Series [1] concerns HEK293T cells. The series is described as follows: DNA Typewriter: sequential prime editing of integrated TAPE-1 arrays, pegRNA pool + PE2, amplicon sequencing. In kind it is cell-based. The conditions noted are these: for Overall editing rate: reads exhibiting any editing, of all reads: pegRNA pool + PE2, four days. The text has this: To test this idea, DNA Tape (“TAPE-1”) was designed by modifying a spacer sequence previously shown to be highly amenable to prime editing by the PE2 enzyme (HEK293 target 3 or HEK3). In TAPE-1, a 3-bp key (GGA) is followed by one tandem array of a 14-bp monomer (TGATGGTGAGCACG) (SEQ ID NO: 57) that includes the PAM sequence (TGG) at positions 4-6. At the 5′-most end of the TAPE-1 array, the key sequence, the first 14-bp monomer, and the first 6 bases of the subsequent 14-bp monomer, collectively comprise an intact 20-bp spacer and PAM (FIG. 1A). A set of 16 pegRNAs was further designed to target TAPE-1, with each pegRNA programming a distinct 5-bp insertion (FIG. 1B). The first 2-bp of the insertion is unique to each of the 16 pegRNAs. The remaining 3-bp of the insertion corresponds to the key (GGA). The inventors reasoned that when a pegRNA/PE2-mediated insertion occurred at the active TAPE-1 site, it would: (1) record the identity of the pegRNA via the 2-bp portion of the insertion; (2) inactivate the current active site by disrupting its sequence; and (3) activate the next monomer along the array, as the newly inserted GGA key, together with the subsequent […], creates an intact 20-bp spacer and PAM. In the next iteration of genome editing, a pegRNA-mediated insertion to the second monomer would be recorded while also moving the type-guide to the third monomer, and then to the fourth, the fifth, and so on (FIG. 1C).
TAPE-1 arrays were synthesized and cloned with varying numbers of monomer units (2×TAPE-1, 3×TAPE-1, 5×TAPE-1), and stably integrated these arrays into the genome of HEK293T cells via the piggyBAC system. The resulting cells were transiently transfected with a pool of plasmids designed to express PE2 (pCMV-PE2-P2A-GFP; Addgene #132776) and sixteen pegRNAs, each programmed to insert an NNGGA barcode to TAPE-1, and harvested them after four days. The TAPE-1 region was PCR-amplified from genomic DNA and sequenced.
For each TAPE-1 array, the sequencing reads were categorized into those in which: (1) no editing occurred; (2) the observed pattern was consistent with sequential, directional editing; or (3) the observed pattern was inconsistent with sequential, directional editing (FIG. 1D-F; Table 1). […] However, within the set of reads showing edits, the data were overwhelmingly consistent with sequential, directional editing. For example, with 2×TAPE-1, the second monomer was edited in 22.8±1.7% of reads in which the first monomer was also edited (FIG. 1D). In contrast, the second monomer was only edited in 0.6% of reads in which the first monomer was not edited. […] Data obtained from 3×TAPE-1 and 5×TAPE-1 were also consistent with sequential genome editing. For example, 98.5% (3×TAPE-1) and 99.0% (5×TAPE-1) of reads that were edited at the second monomer were also edited at the first monomer, while 97.6% (3×TAPE-1) and 98.8% (5×TAPE-1) of reads that were edited at the third monomer were also edited at the first and second monomers (FIG. 1E-1F).
Table 1. Read counts and editing efficiencies for 2×TAPE-1, 3×TAPE-1, and 5×TAPE-1. Sequencing reads were grouped based on the observed editing pattern. For example, reads from 2×TAPE-1 array were categorized into four groups: (A) no edit at either TAPE-1 site (‘OO’); (B) 5-bp insertion at the first TAPE-1 site only (‘XO’); (C) 5-bp insertion at the second TAPE-1 site only (‘OX’); or (D) 5-bp insertions at both TAPE-1 sites (‘XX’). For reads from 5×TAPE-1 array, editing groups were simplified by categorizing directional and iterative editing pattern (OOOOO, XO, XXO, XXXO, XXXXO, and XXXXX) and the erroneous editing patterns (OX, NOX, NNOX, and NNNOX, where N can be either O or X). Editing efficiencies at each site were calculated as the fraction of reads with an edit at the site over the total number of reads in which the site had been activated via insertion of the ‘key’ that completed the spacer sequence. […]

Series [2] concerns HEK293T cells. The series can be described thus: Screen of 48 3×TAPE constructs: efficiency and sequential error rate. In kind it is cell-based. The protocol: In each of these 48 constructs, a 3×TAPE region was accompanied by a pegRNA-expressing cassette designed to target it with a 4-6 bp insertion (16 possible 2-bp barcodes followed by a 2-4 bp key sequence). HEK293T cells were transiently transfected with PE2-encoding plasmid and a pool of 48 pegRNA-by-3×TAPE constructs and harvested them after four days. The 3×TAPE region was PCR-amplified from genomic DNA and sequenced.
Two quantities were calculated for each 3×TAPE array: (1) efficiency, calculated by summing all edited reads and dividing by the total number of reads; and (2) sequential error rate, calculated by summing all edited reads inconsistent with sequential, directional editing and dividing by the total number of edited reads (FIG. 7B). […] Indeed, across the full experiment, a longer key sequence was associated with a lower sequential error rate (FIG. 7C). […] Performance characteristics were highly consistent when the experiment was repeated with integration rather than transient transfection of the constructs (FIG. 7E).

[3] abbreviates: 5-bp insertions, conditional on site activated, per replicate, listed as 3xTAPE-1.
Setting [4] is: 5-bp insertions, conditional on site activated, per replicate, listed as 5xTAPE-1.
[5] abbreviates: 6-bp ins., per replicate, listed as 5xTAPE-1.

Here are results for five molecules from patent US20240355418A1, “MULTIPLEX, TEMPORALLY RESOLVED MOLECULAR SIGNAL RECORDER AND RELATED METHODS” (University of Washington, priority 2021, published 2024).

Several values for one entry are separate records, joined by “and”; a condition that tells them apart may be missing. Identical values can stand only once.

For “3×TAPE-1: TAPE-1 array with three monomers, SEQ ID NO: 59 (DNA GGATGATGGTGAGCACGTGATGGTGAGCACGTGATGGTGAGCACGTGATGGTGAGC; listed as DNA, chemistry not fully specified; the letters are possibly those of the target site)”, in series [1], the “Reads edited at the second monomer that were also edited at the first monomer” value turned out to be 98.5%; the “Reads edited at the third monomer that were also edited at the first and second monomers” value was 97.6%; the “Overall editing rate: reads exhibiting any editing, of all reads” value (from here on “Overall editing rate”) came out at 5.2±0.6%. In series [1] (setting [3]), the “Editing efficiencies: Site 2” value is 0.237 and 0.231 and 0.240; the “Editing efficiencies: Site 3” value is 0.170 and 0.189 and 0.221. In series [1] (5-bp insertions, fraction of reads edited at the site over reads in which the site was activated, per transfection replicate, listed as 3xTAPE-1), the “Editing efficiencies: Site 1” value was 0.059 and 0.051 and 0.047.
“TAPE-27: DNA Tape design, FANCF-based spacer, SEQ ID NO: 32 (DNA GAGATCCGGTCTGCAGCATCCGGTCTGCAGC; listed as DNA, chemistry not fully specified; the letters are possibly those of the target site)”: in series [2] (3×TAPE), the “Greater efficiency than TAPE-1” value is listed as “over 50%” and the “Greater sequential error rate than TAPE-1” value worked out at 2 fold.
As for “TAPE-6: DNA Tape design from HEK3 with 4-bp key, SEQ ID NO: 7 (DNA GGACTGATGGTGAGACGTGATGGTGAGACG; listed as DNA, chemistry not fully specified; the letters are possibly those of the target site)”, the “Sequential error rate (in words)” value in series [2] (48 tested tapes) is listed as “lower sequential error rate than TAPE-1”.
Regarding “2×TAPE-1: TAPE-1 array with two monomers, SEQ ID NO: 58 (DNA GGATGATGGTGAGCACGTGATGGTGAGCACGTGATGGTGAGC; listed as DNA, chemistry not fully specified; the letters are possibly those of the target site)”, in series [1], the “Second monomer edited, in reads in which the first monomer was also edited” value amounted to 22.8±1.7%; the “Second monomer edited, in reads in which the first monomer was not edited” value turned out to be 0.6%; the “Overall editing rate” value came to 4.7±0.5%. In series [1] (5-bp insertions, conditional on site activated, per replicate, listed as 2xTAPE-1), the “Editing efficiencies: Site 2” value was 0.211 and 0.244 and 0.229. In addition, in series [1] (5-bp insertions, fraction of reads edited at the site over reads in which the site was activated, per transfection replicate, listed as 2xTAPE-1), the “Editing efficiencies: Site 1” value is 0.053 and 0.044 and 0.043.

B1: 5×TAPE-1: TAPE-1 array with five monomers, SEQ ID NO: 60 (nucleic acid)
DNA: GGATGATGGTGAGCACGTGATGGTGAGCACGTGATGGTGAGCACGTGATGGTGAGCACGTGATGGTGAGCACGTGATGGTGAGC
modifications: listed as DNA, chemistry not fully specified; the letters are possibly those of the target site
For B1, in series [1], the “Reads edited at the second monomer that were also edited at the first monomer” value is reported as 99.0%; the “Reads edited at the third monomer that were also edited at the first and second monomers” value was determined as 98.8%; the “Overall editing rate” value is listed as 5.9±0.8%. Further, in series [1] (setting [4]), the “Editing efficiencies: Site 2” value was 0.210 and 0.212 and 0.206; the “Editing efficiencies: Site 3” value was 0.151 and 0.144 and 0.154; the “Editing efficiencies: Site 4” value is 0.129 and 0.119 and 0.150; the “Editing efficiencies: Site 5” value is 0.098 and 0.194 and 0.175. The “Editing efficiencies: Site 1” value in series [1] (5-bp insertions, fraction of reads edited at the site over reads in which the site was activated, per transfection replicate, listed as 5xTAPE-1) is 0.066 and 0.059 and 0.051. Also, in series [1] (setting [5]), the “Editing efficiencies: Site 1” value is 0.055 (2×) and 0.057; the “Editing efficiencies: Site 2” value was 0.180 and 0.177 and 0.181; the “Editing efficiencies: Site 3” value is 0.083 and 0.078 and 0.089; the “Editing efficiencies: Site 4” value was 0.099 and 0.059 and 0.265. Further, the “Editing efficiencies: Site 5” value in series [1] (setting [5]) is 0.364 and 0.900 and 0.000.
